# Results from publication PMC10227015, “From a drug repositioning to a structure-based drug design approach to tackle acute lymphoblastic leukemia” (Nature Communications, 2023).
# Like-named read-outs stand apart in the source and are kept apart here.
# Key:
# dCK-C3S-S74E [1] = biological target: T1, dCK-C3S-S74E (Homo sapiens, UniProt P27707, form not given/S74E); assay: Thermal shift assay (TSA); conditions: for ΔTm (º) (TSA): Figure 2a, mean; for Thermal Shift Assay Mean (ΔTm (º)): Figure 2b
# T1 sequence (P27707 whole entry S74E, form open): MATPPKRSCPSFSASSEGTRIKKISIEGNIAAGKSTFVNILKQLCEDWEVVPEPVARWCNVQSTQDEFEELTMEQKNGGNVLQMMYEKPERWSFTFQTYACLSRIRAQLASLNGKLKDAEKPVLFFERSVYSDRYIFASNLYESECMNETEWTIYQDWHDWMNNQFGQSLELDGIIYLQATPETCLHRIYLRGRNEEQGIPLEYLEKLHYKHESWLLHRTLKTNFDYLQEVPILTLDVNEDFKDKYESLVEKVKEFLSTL
# dCK-C3S-S74E [2] = biological target: T1, dCK-C3S-S74E; assay: Enzymatic assay (PK/LDH coupled), dC phosphorylation by dCK in the presence of ATP; assay type: biochemical; conditions: for IC50: read-out: ENZYMATIC ASSAY IC50, presence of ATP, [dCK] = 50 nM (footnote A)
# Procedure: (§1) For enzymatic assays, cells were re-suspended in 20 mM TRIS, pH 8 500 mM NaCl, 0.1% BRIJ-35 and 5% glycerol buffer and one EDTA free anti-protease tablet was added (Roche). After sonication and centrifugation (30,000 × g), the supernatant was loaded on a 5 ml HisTrap FF column (GE healthcare) pre-equilibrated with 20 mM TRIS, pH 8, 500 mM NaCl, 0.01% BRIJ-35 and 5% glycerol buffer. The protein was then eluted by the same buffer containing 250 mM imidazole after a wash containing 25 mM imidazole. The eluted fraction was applied on a HiPrep 26/10 desalting column (GE healthcare) pre-equilibrated with 20 mM TRIS, pH 8, 500 mM NaCl, 5% glycerol and 0.01% BRIJ-35 buffer. Finally, protein in a 20% glycerol buffer was flash frozen in liquid nitrogen and stored at −80 °C.
# (§2) Kinetic analyses were performed using a spectrophotometric continuous enzymatic-coupled assay using pyruvate kinase (PK) and lactate dehydrogenase (LDH). Analysis of the effect of compounds on dCK-C3S-S74E activity was performed using dC as substrate and UTP/ATP as phosphate donors. UTP is the physiological dCK-phosphate donor[46] and it was used to determine activation versus inhibition behavior. ATP was used to calculate IC50 values, as it allows the analysis of a dose response curve. The PK/LDH coupled assay is based on the conversion of phosphoenolpyruvate (PEP) and UDP/ADP to pyruvate and UTP/ATP by PK and the subsequent conversion of pyruvate to lactate by LDH. The latter step requires NADH, which is oxidized to NAD^+. NADH is fluorescent (excitation at 337 nm and emission at 460 nm), but not NAD^+. Thus, the measurement of fluorescent decrease at 460 nm is a measure of kinase activity. dCK experiments were performed in a buffer containing 50 mM HEPES, pH 7.5, 5 mM MgCl2, 1 mM DTT, and 100 mM KCl. Buffer was supplemented with PK (0.01 U/µl), LDH (0.02 U/µl), PEP (1 mM), NADH (300 µM) and compounds at varying concentrations. For UTP assays, protein concentration was 2 μM, substrate 200 µM (dC), and UTP 1 mM. For ATP assays, protein concentration was 100 nM (and 50 nM when indicated), substrate 100 µM (dC), and ATP 1 mM. All measurements were performed on a microplate reader Pherastar FS (BMG Labtech). All assays were performed in triplicate and each experiment was performed at least twice. The data are presented as mean ± SD. The results were plotted as kinetics and the velocity was determined for each condition as the slope of the linear range of the curve. For each compound concentration, the velocity of the reaction (according to V = d[P]/dt) was normalized with respect to the drug free control and velocity ratios were compared. IC50 values corresponding to enzymatic inhibition in ATP were calculated by nonlinear regression curves using GraphPad Prism software 9.4.0.
# dCK-C3S-S74E [3] = biological target: T1, dCK-C3S-S74E; assay: Enzymatic assay (PK/LDH coupled), dC phosphorylation by dCK in the presence of UTP; assay type: biochemical; conditions: presence of UTP
# Procedure: as §1
# as §2, with “Analysis of the effect of compounds on dCK-C3S-S74E activity was performed using dC as substrate and UTP/ATP as phosphate donors.” left out
# [4] = Acute in vivo toxicity, unique IP injection; conditions: male, mouse, in vivo; Swiss mice, IP, unique injection; read-out: Maximum tolerated dose
# Procedure: (§3) To evaluate the in vivo toxicity selected compounds were injected by intraperitoneal (IP) route to 7 weeks-old male Swiss mice (n = 2) at 10, 20, 40, 50, or 80 mg/kg by unique injection. […] Compounds were administered in their hydrochloride salt forms. Mice were then observed closely for the next one hour, then every hour for 8 h. Observations were continued for 72 h for signs of pain or toxicity such as change in the behavior and in the activity in the cage (decreased locomotion) or change in the appearance (curved back, eyes half-closed, bristle hair, hips hollowed out). In vivo toxicity of compound OR0642 at 40 and 80 mg/kg was also assessed in the NOD-SCID-IL2Rγc null (NSG) mice model for 2 weeks in the presence and absence of dT to confirm the safety of the compound. […]. Blood samples were collected and spun at 10,000 × g prior to collecting the plasma supernatants. All plasma samples were frozen at −80 °C before sample processing. 13 μl of each plasma sample was mixed with 33 μl of acetonitrile to precipitate proteins and extract the compound. Samples were vortexed for 5 min and then placed in an ultrasonic bath for 1 min. The precipitated proteins were sedimented by centrifugation (15,000 × g, 5 min, 16 °C). Supernatants were transferred to a microplate to be analyzed by LC–MS/MS. All samples were analyzed with a UHPLC coupled to a Shimadzu LC-MS 8030 triple quadrupole. The solutions of a standard range, prepared with plasma from untreated mice, were analyzed in the same series of injections.
# [5] = Plasma pharmacokinetics after IP administration; assay type: in vivo; conditions: male, Swiss, mouse, mice; for half-life: read-out: T ½ (converted)
# Procedure: as §3
# CCRF-CEM cell line = assay: dCK cellular assay: CCRF-CEM proliferation in the presence of dT and dC; assay type: cell-based, human; conditions: Homo sapiens; Figure 2a, CCRF-CEM cell line, mean; read-out: IC50 (nM) (Cell Prolif)
# Outline: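 Two conditions in T-ALL CCRF-CEM cells: compound only, and compound with thymidine blocking de novo synthesis and deoxycytidine rescuing via dCK. Metabolic dye fluorescence (560/590 nm) gives % proliferation vs DMSO; IC50s, mean ± SD of at least three triplicate runs.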
# dCK-C3S-S74E [6] = biological target: T1, dCK-C3S-S74E
# Swiss male mice = assay: Acute in vivo toxicity, unique IP injection; conditions: mice, 80 mg/kg/day
# Procedure: as §3
smiles,measurement,setting,value
CCCN(c1nc(-c2nc(N)cc(N)n2)cs1)c1cc(-c2ccc(S(=O)(=O)N3CCN(C)CC3)cc2)ccc1C [OR0624],ΔTm (º) (TSA),dCK-C3S-S74E [1],19.49 º
same,Thermal Shift Assay Mean (ΔTm (º)),dCK-C3S-S74E [1],19.5 º
same,THERMAL SHIFT ASSAY +Tm (°),dCK-C3S-S74E [1]; mean ± SD,19.5 ± 0.8 °
same,Enzymatic activity (ATP) Mean (% activity),dCK-C3S-S74E [2]; 0.02 µM,91.0%
same,Enzymatic activity (ATP) Mean (% activity),dCK-C3S-S74E [2]; 0.04 µM,91.7%
same,Enzymatic activity (ATP) Mean (% activity),dCK-C3S-S74E [2]; 0.08 µM,65.2%
same,Enzymatic activity (ATP) Mean (% activity),dCK-C3S-S74E [2]; 0.16 µM,32.0%
same,Enzymatic activity (ATP) Mean (% activity),dCK-C3S-S74E [2]; 0.31 µM,9.2%
same,Enzymatic activity (ATP) Mean (% activity),dCK-C3S-S74E [2]; 0.63 µM,3.9%
same,Enzymatic activity (ATP) Mean (% activity),dCK-C3S-S74E [2]; 1.25 µM,2.6%
same,Enzymatic activity (ATP) Mean (% activity),dCK-C3S-S74E [2]; 2.5 µM,1.2%
same,Enzymatic activity (ATP) Mean (% activity),dCK-C3S-S74E [2]; 5 µM,0.363%
same,IC50,dCK-C3S-S74E [2],198 ± 131 nM
same,ENZYMATIC ASSAY (Activation/Inhibition),dCK-C3S-S74E [3],I
same,MTD at 72 h,[4],20 mg/kg
same,Cmax,[5]; dose 20 mg/Kg,3.1 ± 0.6 µM
same,Tmax,[5]; dose 20 mg/Kg,1 h
same,half-life,[5]; dose 20 mg/Kg,2.22 ± 0.183 h
CCCN(c1nc(-c2nc(N)cc(N)n2)cs1)c1cc(-c2ccc(OCC(=O)N3CCN(C)CC3)nc2)ccc1C [OR0630],IC50,CCRF-CEM cell line,245 nM
same,ΔTm (º) (TSA),dCK-C3S-S74E [6],17.35 º
CCCN(c1nc(-c2nc(N)cc(N)n2)cs1)c1cc(-c2ccc(S(=O)(=O)N3CCN(C)CC3)nc2)ccc1C [OR0634],ΔTm (º) (TSA),dCK-C3S-S74E [1],17.45 º
same,Thermal Shift Assay Mean (ΔTm (º)),dCK-C3S-S74E [1],17.5 º
same,Enzymatic activity (ATP) Mean (% activity),dCK-C3S-S74E [2]; 0.02 µM,89.7%
same,Enzymatic activity (ATP) Mean (% activity),dCK-C3S-S74E [2]; 0.04 µM,80.2%
same,Enzymatic activity (ATP) Mean (% activity),dCK-C3S-S74E [2]; 0.08 µM,45.4%
same,Enzymatic activity (ATP) Mean (% activity),dCK-C3S-S74E [2]; 0.16 µM,12.5%
same,Enzymatic activity (ATP) Mean (% activity),dCK-C3S-S74E [2]; 0.31 µM,4.0%
same,Enzymatic activity (ATP) Mean (% activity),dCK-C3S-S74E [2]; 0.63 µM,2.2%
same,Enzymatic activity (ATP) Mean (% activity),dCK-C3S-S74E [2]; 1.25 µM,1.9%
same,Enzymatic activity (ATP) Mean (% activity),dCK-C3S-S74E [2]; 2.5 µM,1.6%
same,Enzymatic activity (ATP) Mean (% activity),dCK-C3S-S74E [2]; 5 µM,1.6%
same,IC50,dCK-C3S-S74E [2],100 ± 82 nM
same,ENZYMATIC ASSAY (Activation/Inhibition),dCK-C3S-S74E [3],I
same,MTD at 72 h,[4],> 80 mg/kg
same,in vivo tolerance,Swiss male mice,well tolerated
same,Cmax,[5]; dose 40 mg/Kg,5.5 ± 1.3 µM
same,Tmax,[5]; dose 40 mg/Kg,1 h
same,half-life,[5]; dose 40 mg/Kg,2.15 ± 0.283 h
